Measurements from US20210220368A1, “COMPOSITIONS COMPRISING TIMOLOL AND THEIR USE IN THE TREATMENT OF ROSACEA BY TOPICAL ADMINISTRATION” (Almirall, S.A., priority 2016, published 2021).

What was measured:
TPA-induced ear oedema [1] = test: TPA-induced ear oedema model in Balb/c mice; type: in vivo; conditions: timolol 1%, brimonidine 0.2% in acetone, topical, 30 min before and 15 min after TPA; ear weight at T+6 h; p<0.005
Method: Evaluation of the Anti-Oedema Effect of Timolol and Brimonidine after Two Topical Applications in the TPA-Induced Ear Oedema Model in Balb/c Mice.
The oedema is induced by means of a single application to the right ear of the mouse of 20 μl of a solution of TPA (phorbol 12-myristate 13-acetate) in acetone at 0.01%. The test compounds are diluted in acetone and applied 30 minutes before and 15 minutes after TPA. The weight of the mouse ears is measured at T+6 h and the weight of the left ear is subtracted from the one of the right ear.
Timolol was applied at a concentration of 1% before and after TPA application. The alpha agonist, brimonidine 0.2% was also tested for comparison.
Each group included 12 animals. Numbers above the bars indicate the percentage inhibition of the corresponding group of treated animals vs the control group.

TPA-induced ear oedema [2] = conditions: topical brimonidine 0.2%, mice; Piwnica et al., J. Dermatol. Sci. 2014; cited from earlier work
[3] = test system: capsaicin-induced vasodilation; test: Vasodilation (erythema) induced by topical capsaicin in the ear of CD1 mice; type: in vivo, CD-1 mice; conditions: timolol 1%, brimonidine 0.33%, oxymetazoline 0.88% solutions, topical to the ear before capsaicin; peak erythema 45 min after capsaicin, Mexameter
Method: Evaluation of the Effect of Topical Timolol, Brimonidine and Oxymetazoline in Vasodilation Induced by Topical Application of Capsaicin in the Ear of CD1 Mice
Neurogenic skin inflammation was induced by capsaicin (Alacapsin 0.075% cream) on the ear of CD-1 mice. Capsaicin induces the release of neuropeptides most of which have vasodilatory properties. In this model vasodilation is evaluated with a narrowband spectrophotometer probe (Mexameter) that measures peak absorption of haemoglobin. The quantity of light absorbed by the skin is calculated as Mexameter® arbitrary units, and this measure of erythema can be considered a surrogate of vasodilation. […] Treatment effects are reported at this maximal induction of erythema.
Timolol 1%, brimonidine 0.33% and oxymetazoline 0.88% solutions were applied topically to the mouse ear before capsaicin induction.
Results described represent peak erythema of four groups of animals and are reported as mexameter arbitrary units. Each group included 6-12 animals. Numbers above the bars indicate the percentage inhibition of the corresponding group vs the capsaicin control group.

[4] = test system: erythematotelangiectatic rosacea; conditions: topical timolol, human subjects with erythematotelangiectatic rosacea; Jaque et al., Rev. Chilena Dermatol 2012; cited from earlier work

SMILES: Brc1c(NC2=NCCN2)ccc2nccnc12 [brimonidine]
- inhibition of ear oedema vs control group (TPA-induced ear oedema [1]): around 50%
- inhibition of TPA-induced ear oedema (TPA-induced ear oedema [2]): 50%
- percentage inhibition of ear vasodilation (erythema) vs capsaicin control group [3]: 56%

SMILES: Cc1cc(C(C)(C)C)c(O)c(C)c1CC1=NCCN1 [oxymetazoline]
- percentage inhibition of ear vasodilation (erythema) vs capsaicin control group [3]: 60%

SMILES: CC(C)(C)NC[C@H](O)COc1nsnc1N1CCOCC1 [timolol, (S)-1-(tert-butylamino)-3-[(4-morpholin-4-yl-1,2,5-thiadiazol-3-yl)oxy]propan-2-ol]
- inhibition of ear oedema vs control group (TPA-induced ear oedema [1]): around 50%
- clinical benefit [4]: no clinical benefit
- percentage inhibition of ear vasodilation (erythema) vs capsaicin control group [3]: 44%
